Experimental data taken from PMC4850295, “Using a Genetically Encoded Sensor to Identify Inhibitors of Toxoplasma gondii Ca^2+ Signaling” (The Journal of Biological Chemistry, 2016).

System: T1, GCaMP5-expressing T. gondii
T1 construct: whole extracellular parasites expressing GCaMP5 Ca2+ sensor
Set-up: species or system GCaMP5-expressing Toxoplasma gondii, extracellular; GCaMP5 fluorescence (cytosolic Ca2+) after 100 uM zaprinast in compound-pretreated extracellular parasites, background-subtracted, relative to zaprinast alone
Conditions: 100 uM zaprinast stimulation; 10 min pretreatment; mean of two replicates; 0.23 h
Protocol: GCaMP5-expressing parasites were suspended in Ringer's solution at 4 × 10^7 parasites/ml, and 50 μl of parasites were applied to each well of a 96-well plate (Costar, catalog no. 3631). […] Parasites were then treated with 100 μM zaprinast or 0.1% DMSO as a vehicle control and incubated at 37 °C with 5% CO2 for an additional 4 min before measuring fluorescence with excitation and emission wavelengths of 485 and 525 nm, respectively, on a SpectraMax M3 (Molecular Devices). Basal fluorescence, measured from untreated parasites, was subtracted from all values, and results were expressed as -fold change from parasites treated only with zaprinast. Z′ factors were determined from (i) parasites treated with zaprinast versus untreated parasites and (ii) parasites treated with a final concentration of 1 μM Cpd2 or a vehicle control followed by zaprinast, using the formula, Z′ = 1 − 3(σp + σn)/(|μp − μn|), where σp and σn indicate S.D. values of positive and negative controls, and μp and μn indicate the means of positive and negative controls, respectively. […] We predicted that the zaprinast response measured in GCaMP5-expressing parasites could form the basis for a phenotypic screen. Such a screen would benefit from the known importance of Ca^2+ signaling in parasite biology along with the reported success rate of cell-based phenotypic assays. We designed a screen wherein extracellular GCaMP5-expressing parasites were pretreated with compounds for 10 min before stimulation with zaprinast, and parasite fluorescence was measured 4 min later. We expected that compounds that interfered with the zaprinast response would reduce fluorescence. We calculated a Z′-factor for this screen to determine its dynamic range and suitability to high throughput screening. To do so, we compared zaprinast-treated parasites to untreated parasites or those pretreated with the PKG inhibitor Compound 2 (Cpd2) ([55]). […] We obtained the compound libraries published kinase inhibitor sets PKIS1 ([57]) and PKIS2 (unpublished), from GlaxoSmithKline and applied our phenotypic screen to the 823 ATP mimetics represented in these collections (Fig. 2B and supplemental Table S1). The compounds were screened at a single 10 μM dose with two biological replicates.

Structure (SMILES)	fold change in fluorescence relative to zaprinast alone
COc1ccc(Nc2ncc(-c3ccccc3)o2)cc1OC [GW575533A]	1.197
CCn1c(-c2nonc2N)nc2ccncc21 [SB-738561]	1.114
c1ccc(-c2[nH]ncc2-c2ccnc(-c3ccc(CN4CCOCC4)cc3)c2)nc1 [GW776245A]	1.036
COc1cccc(NC(=O)NC2CCN(c3ccnc(Nc4ccc(F)cc4)n3)C2)c1 (centres unmarked) [GSK1379721A]	0.358
O=C1NC(=O)C(c2ccc(Cl)cc2)=C1Nc1ccc(O)cc1 [SB-340867]	1.192
COC(=O)Nc1nc2ccc(Oc3ccc(NC(=O)Nc4cccc(SC)c4)cc3)cc2[nH]1 [GW697999A]	1.427
COC(=O)c1cccc(NC(=O)NC2CCN(c3ccnc(Nc4ccc(OC)cc4)n3)C2)c1 (centres unmarked) [GSK1379746A]	1.123
Cc1ccc(NC(=O)c2ccnc(N3CCCC3)c2)cc1-c1ccc(C(=O)NCC2CC2)cc1 [GW769076X]	1.128
NS(=O)(=O)c1ccc(-c2ccc3c(NC(=O)C4CC4)n[nH]c3c2)cc1 [SB-738482]	1.098
COC(=O)Nc1nc2ccc(S(=O)(=O)c3ccc(NC(=O)Nc4cc(C(F)(F)F)ccc4F)cc3)cc2[nH]1 [GW680908A]	1.018
Cc1nnc(-c2ccc(C)c(-c3ccc(C(=O)O)cc3)c2)o1 [GW608005X]	1.249
Nc1nc(-c2nccs2)c(-c2ccnc3ccccc23)s1 [GW693542X]	0.8815
COc1cc2c(cc1Nc1nc(Nc3ccsc3C(N)=O)c3cc[nH]c3n1)N(C(=O)CN(C)C)CCC2(C)C [GSK2163632A]	1.131
COc1cccc(C2=C(Nc3ccc(Cl)c(C(=O)O)c3)C(=O)NC2=O)c1 [SB-390769]	1.176
C[C@@H](Oc1cc(-n2cnc3ccc(OC4CCN(C)CC4)cc32)sc1C(N)=O)c1ccccc1Cl [GSK579289A]	0.9541
Cc1cc(Cl)cc2c1NC(=O)C2=NNc1ccc(S(N)(=O)=O)cc1 [GW279320X]	1.035
c1cnn2ncc(-c3ccnc(Nc4ccc5c(c4)OCCO5)n3)c2c1 [GW806290X]	-0.04929
NCCC(NC(=O)c1cc(Br)c(-c2ccnc3[nH]ccc23)s1)c1ccccc1 (centres unmarked) [GSK1307810A]	0.5195
COc1ccc(-c2nn3ncccc3c2-c2ccnc(Nc3cccc(C(F)(F)F)c3)n2)cc1 [GW827105X]	0.7957

Structure (SMILES)	fold change in fluorescence relative to zaprinast alone
CN1C(=O)C(Nc2ccccc2)=C(c2ccccc2)C1=O [SB-300079]	0.899
CNC(=O)c1ncccc1Nc1nc(Nc2cc3c(cc2OC)CCCN3C(=O)CN(C)C)nc2[nH]ccc12 [GSK2220400A]	1.127
Fc1ccc(-c2nc[nH]c2-c2ccncc2)cc1 [SB-217360]	0.1031
CCNC(=O)O[C@H]1CN[C@H](C#Cc2cc3ncnc(Nc4ccc(OCc5cccc(F)c5)c(Cl)c4)c3s2)C1 [GSK192082A]	1.213
Cc1ccc(NC(=O)c2cccc(N3CCCCC3)c2)cc1-c1ccc(C(=O)NCC2CC2)cc1 [GSK1917008A]	1.193
Fc1ccc(-c2c(-c3ccccn3)nc3n2CCS3)cc1 [SKF-104365]	0.9062
Cc1nnc(-c2ccc(C)c(-c3ccc(C(=O)Nc4cccc(C#N)c4)cc3)c2)o1 [GW607117X]	1.107
O=C1NC(=O)C(N2CCc3ccccc32)=C1c1ccccc1Cl [SB-373598]	1.071
Nc1ncnc2c1ncn2-c1ccc(Cl)cc1 [AH2635]	1.022
N#Cc1c(NC(=O)c2ccc(F)cc2)sc2c1CCCC2 [SB-347804]	1.012
CCN1CCC(C(=O)Nc2n[nH]c3nnc(-c4cccc(F)c4F)cc23)CC1 [SB-686709-A]	1.08
CCc1cccc(CC)c1/C=C/c1cncc(C(=O)NC)c1 [GW450241X]	1.076
Fc1cc(Cl)ccc1Nc1ccnc2cc(-c3ccc(CN4CCCCC4)o3)ccc12 [GW560116X]	0.6823
COc1cccc(-n2nc(C)c3c(N/N=C(\C)c4ccncc4)ncnc32)c1 [GW809885X]	1.233
CN1CCN(CCCNc2nccc(-c3c(-c4ccc(F)cc4)nn4cc(C(F)(F)F)ccc34)n2)CC1 [GW621581X]	0.8628
COc1ccc2cc(-c3c(-c4ccncc4)nc(-c4ccc(SC)cc4C)n3C)ccc2c1 [SB-625086-M]	0.941
NS(=O)(=O)c1cccc(N/C=C2\C(=O)Nc3ccccc32)c1 [GW275616X]	0.9797
O=C(Nc1n[nH]c2cc(-c3cccs3)ccc12)C1CC1 [SB-731284]	1.194
COc1cccc(-n2cnc3c(N/N=C/c4ccncc4)ncnc32)c1 [GW813360X]	1.13

Structure (SMILES)	fold change in fluorescence relative to zaprinast alone
COc1cc(Nc2nccc(N3CCC(NC(=O)c4cccc(NC(C)=O)c4)C3)n2)cc(OC)c1OC (centres unmarked) [GSK1379754A]	1.271
CCOc1nccc(-c2c(-c3ccc(F)cc3)ncn2C2CCNCC2)n1 [SB-249175]	0.6135
CS(=O)(=O)CCNCc1ccc(-c2ccc3ncnc(Nc4ccc(OCc5cccc(F)c5)c(C(F)(F)F)c4)c3c2)o1 [GW576484X]	0.5624
COc1ccccc1CNC(=O)c1cc(C(=O)c2ccccc2C)c[nH]1 [GSK364507A]	1.353
COc1ccc(Nc2nccc(N3CCC(NS(=O)(=O)c4ccc(NC(C)=O)cc4)C3)n2)cc1 (centres unmarked) [GSK1379729A]	1.531
O=C(Nc1ccc(Oc2ccc3[nH]c(NC(=O)c4ccccc4)nc3c2)cc1)Nc1cc(C(F)(F)F)ccc1F [GW709042A]	1.07
O=C(Nc1n[nH]c2cc(-c3ccccc3)ccc12)C1CC1 [SB-732941]	1.147
CNC(=O)Oc1cc(C)c(/C=C/c2cncc(C(=O)NC)c2)c(C)c1 [GW432441X]	1.157
Cc1ccc(C(=O)Nc2ccc(Nc3ccnc4cc(-c5nccs5)ccc34)cc2O)cc1 [GW494702A]	0.9828
Cn1cc(-c2cnc(N)c3c(-c4ccc5c(c4)CCN5C(=O)Cc4ccccc4)csc23)cn1 [GSK2593074A]	1.463
CSc1ccc(NC2=C(c3ccc(Cl)cc3)C(=O)NC2=O)cc1 [SB-317658]	0.971
O=S(=O)(c1cccc(F)c1)c1ccc(Nc2ncnc3cc(Br)sc23)cc1Cl [GSK306886A]	1.114
COc1ccc(Nc2nccc(-c3ccc(NC(=O)c4cc5cc(F)ccc5[nH]4)cc3)n2)cc1 [GSK1229496A]	1.727
COC(=O)c1sc(-n2cnc3cc(OC)c(OC)cc32)cc1OCc1ccccc1C(F)(F)F [GSK1030058A]	0.7743
COc1ccccc1-c1ccc2c(NC(=O)C3CC3)n[nH]c2n1 [SB-711239]	1.107
Cn1ncc2c(N)ncnc21 [SKF-18267]	0.9633
CC1(C)CC(n2cnc(-c3ccc(F)cc3)c2-c2ccnc(N)n2)CC(C)(C)N1 [SB-221466]	1.33
NC(=O)c1cc(-c2ccccc2)cc2c(C3CCNCC3)c[nH]c12 [GSK301362A]	1.06
